Literature values as cited in US20080253970A1, “Stable Pharmaceutical Drug Products” (Schering Corporation, priority 2007, published 2008).

solubility in ethanol	Structure (SMILES)
partially soluble in ethanol	CC1(C)O[C@@H]2C[C@H]3[C@@H]4C[C@H](F)C5=CC(=O)C=C[C@]5(C)[C@H]4[C@@H](O)C[C@]3(C)[C@]2(C(=O)CO)O1 [flunisolide]
partially soluble in ethanol	C[C@@H]1C[C@H]2[C@@H]3CCC4=CC(=O)C=C[C@]4(C)[C@@]3(Cl)[C@@H](O)C[C@]2(C)[C@@]1(OC(=O)c1ccco1)C(=O)CCl [mometasone furoate, 9,21-Dichloro-11(beta), 17-dihydroxy-16(alpha)-methylpregna-1,4-diene-3,20-dione17-(2 Furoate)]
partially soluble in ethanol	C[N+]1(C)[C@@H]2C[C@@H](OC(=O)C(O)(c3cccs3)c3cccs3)C[C@H]1[C@@H]1O[C@@H]12 [tiotropium]
